Source: PMC9569529, “Safe and Efficient Sigma1 Ligand: A Potential Drug Candidate for Multiple Sclerosis” (International Journal of Molecular Sciences, 2022)
Where two headings read alike, the source gives them in different places.

Legend:
Plasma protein binding = type: in vitro ADME; conditions: 4-h incubation at 37 °C, read-out: PPB (converted)
Protocol: The compound was classically evaluated at 10 µM for all the ADME analyses. Bidirectional permeability (apical A to basolateral B pH 6.5/7.4 and basolateral B to apical A pH 7.4/6.5) was assessed in the epithelial colorectal adenocarcinoma cell line (Caco-2 cell line). Results were expressed as × 10^−6cm/s (Papp) and as % recovery. Efflux ratio, i.e., Papp(B-A)/Papp(A-B), was calculated. Plasma protein binding was analyzed by HPLC-MS/MS after 4-h incubation at 37 °C, as described by Banker et al.. Concentration was evaluated by LC/MS-MS. CYP inhibition was performed in human liver microsomes as described in [61]. Analysis of the respective metabolites. was performed by HPLC-MS/MS. Transporter inhibition analysis was also performed in overexpressing cell lines. Respective metabolites for each specific transporter substrate were analyzed by fluorometry or scintillation counting and % inhibition of control values were calculated. […] Results were expressed as ×10^−6 cm/s (Papp) and as % recovery. The efflux ratio, i.e., Papp(B-A)/Papp(A-B), was calculated. […] The mRNA levels of 7 different CYPs were analyzed by qPCR, as described in [72]. The compound was evaluated at 1, 10 and 100 µM. Fold-induction values were determined and compared to cut-off values, as defined for each CYP isozyme in each hepatocyte lot.

[1] = Bidirectional permeability in Caco-2 (pH 6.5/7.4); type: in vitro ADME, human; conditions: human; for Papp A→B at 10 µM: Caco-2, pH 6.5, Caco-2, 10 µM, read-out: Permeability A/B pH6.5/7.4; for efflux ratio at 10 µM: Caco-2, pH 6.5, Papp(B-A)/Papp(A-B), pH 6.5/7.4, read-out: e-ratio (efflux ratio); for Papp B→A at 10 µM: pH 6.5, Caco-2, 10 µM, read-out: Permeability B/A pH6.5/7.4
Protocol: (§1) The compound was classically evaluated at 10 µM for all the ADME analyses. Bidirectional permeability (apical A to basolateral B pH 6.5/7.4 and basolateral B to apical A pH 7.4/6.5) was assessed in the epithelial colorectal adenocarcinoma cell line (Caco-2 cell line). Results were expressed as × 10^−6cm/s (Papp) and as % recovery. Efflux ratio, i.e., Papp(B-A)/Papp(A-B), was calculated. Plasma protein binding was analyzed by HPLC-MS/MS after 4-h incubation at 37 °C, as described by Banker et al.. Concentration was evaluated by LC/MS-MS. CYP inhibition was performed in human liver microsomes as described in [61]. Analysis of the respective metabolites. was performed by HPLC-MS/MS. Transporter inhibition analysis was also performed in overexpressing cell lines. Respective metabolites for each specific transporter substrate were analyzed by fluorometry or scintillation counting and % inhibition of control values were calculated. P-glycoprotein transporter substrate assessment was performed by bidirectional permeability analysis (apical A to basolateral B pH 7.4/7.4 and basolateral B to apical A pH 7.4/7.4) in the Caco-2 cell line with and without verapamil, as described in [59]. Results were expressed as ×10^−6 cm/s (Papp) and as % recovery. The efflux ratio, i.e., Papp(B-A)/Papp(A-B), was calculated. CYP450 induction characterization was performed on human hepatocytes. The mRNA levels of 7 different CYPs were analyzed by qPCR, as described in [72]. The compound was evaluated at 1, 10 and 100 µM. Fold-induction values were determined and compared to cut-off values, as defined for each CYP isozyme in each hepatocyte lot.

hERG = biological target: T1, hERG (Homo sapiens, UniProt Q12809); test: hERG automated patch-clamp in hERG-CHO cells; type: cell-based
T1 construct: host or cells: CHO (hERG-CHO overexpressing cells)
T1 sequence (Q12809 whole entry): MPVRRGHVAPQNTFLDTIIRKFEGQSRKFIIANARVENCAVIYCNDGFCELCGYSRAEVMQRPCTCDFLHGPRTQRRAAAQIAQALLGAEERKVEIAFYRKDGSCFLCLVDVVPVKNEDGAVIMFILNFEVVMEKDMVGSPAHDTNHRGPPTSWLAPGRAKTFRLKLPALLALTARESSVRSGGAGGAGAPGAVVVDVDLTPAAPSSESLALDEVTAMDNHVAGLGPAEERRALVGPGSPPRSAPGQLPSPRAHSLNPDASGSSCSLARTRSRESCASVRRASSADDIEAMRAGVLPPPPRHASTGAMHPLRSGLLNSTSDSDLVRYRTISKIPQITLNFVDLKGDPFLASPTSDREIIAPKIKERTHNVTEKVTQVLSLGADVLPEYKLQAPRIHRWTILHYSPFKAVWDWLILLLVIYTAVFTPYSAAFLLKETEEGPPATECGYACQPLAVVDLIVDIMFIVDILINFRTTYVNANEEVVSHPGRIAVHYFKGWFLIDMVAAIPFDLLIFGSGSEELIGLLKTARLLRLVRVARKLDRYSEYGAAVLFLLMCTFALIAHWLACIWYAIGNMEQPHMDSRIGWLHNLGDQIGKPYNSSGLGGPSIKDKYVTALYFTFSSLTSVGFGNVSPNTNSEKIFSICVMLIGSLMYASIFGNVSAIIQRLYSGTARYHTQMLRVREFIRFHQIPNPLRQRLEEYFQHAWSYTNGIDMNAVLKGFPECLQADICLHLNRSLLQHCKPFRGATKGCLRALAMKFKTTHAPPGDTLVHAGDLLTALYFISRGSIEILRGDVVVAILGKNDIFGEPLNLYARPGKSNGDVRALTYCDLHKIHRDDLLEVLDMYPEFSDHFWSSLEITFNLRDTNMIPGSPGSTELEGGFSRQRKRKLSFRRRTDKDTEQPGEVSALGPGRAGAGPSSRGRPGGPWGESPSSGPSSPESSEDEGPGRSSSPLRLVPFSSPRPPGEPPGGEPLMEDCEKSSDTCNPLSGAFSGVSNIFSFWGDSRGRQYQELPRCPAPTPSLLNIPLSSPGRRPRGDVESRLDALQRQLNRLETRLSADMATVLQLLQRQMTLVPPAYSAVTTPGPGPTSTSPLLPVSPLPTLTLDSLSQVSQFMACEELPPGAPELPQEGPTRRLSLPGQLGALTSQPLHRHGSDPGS
Protocol: Cardiotoxicity analysis was performed by Eurofins Cerep (Poitiers, France) according to [73]. hERG-CHO overexpressing cells were used to perform automated patch-clamping. Compound 7i was evaluated at 0.1, 1 and 10 µM. Activities were expressed as % inhibition of tail current.

[2] = Microsomal stability in mouse liver microsomes; type: in vitro ADME; conditions: mLM; for Compound Remaining (1 h, %): 10 µM; for half-life at 10 µM / microsomal CLint at 10 µM: mouse, liver microsomes
Protocol: Metabolic stability analysis (mouse and human liver microsomes) was performed by Eurofins Cerep (Poitiers, France) at 10 µM as described in [55]. Results were obtained at 15, 30, 45 and 60 min. Results were expressed as percent of the parent compound remaining, and calculated by comparing the peak area of the compound at the time point relative to that at time 0. The half-life (t1/2) and the apparent intrinsic clearance (CLint) were evaluated.

S1R = biological target: T2, S1R (Homo sapiens, UniProt Q99720); test: S1R binding assay, [3H](+)-pentazocine, Jurkat cell membranes
T2 construct: host or cells: Jurkat cell membranes
T2 sequence (Q99720 whole entry): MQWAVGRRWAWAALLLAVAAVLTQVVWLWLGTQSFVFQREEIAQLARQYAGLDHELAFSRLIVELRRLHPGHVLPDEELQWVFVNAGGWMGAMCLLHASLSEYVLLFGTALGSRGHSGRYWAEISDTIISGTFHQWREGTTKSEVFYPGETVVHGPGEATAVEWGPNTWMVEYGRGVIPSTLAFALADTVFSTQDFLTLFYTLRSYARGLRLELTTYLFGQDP
Protocol: The binding assays were performed by Eurofins Cerep (Poitiers, France) according to Ganapathy. Briefly, S1R)binding assay was carried out by incubating Jurkat cell membranes ([…] protein per tube) with [^3H] (+)-pentazocine (15 nM) and a range of concentrations of test compounds at 37 °C for 2 h in 5 mM Tris HCl buffer (pH = 7.4). The S2R binding assay was performed by incubating Jurkat cell membranes ([…] protein per tube) with [^3H]-DTG (25 nM) in the presence of (+)-pentazocine (1 mM), to saturate S1R, and a range of concentrations of test compounds at room temperature for 1 h in 5 mM Tris HCl buffer (pH = 7.4). Bound radioactivity was measured using liquid scintillation counting. Nonspecific binding was determined in both assays, under similar conditions, as remaining in the presence of […] unlabeled haloperidol. Inhibition constants (Ki) were calculated from the IC50 values according to the method of Cheng and Prusoff.

CYP2C9 = biological target: T3, CYP2C9 (Homo sapiens, UniProt P11712); test: CYP inhibition in human liver microsomes; type: in vitro ADME; conditions: read-out: CYPs inhibition CYP2C9
T3 construct: tissue Eurofins Cerep (CRO); host or cells: human liver microsomes
Protocol: as §1

CYP2C8 = biological target: T4, CYP2C8 (Homo sapiens, UniProt P10632); test: CYP inhibition in human liver microsomes; type: in vitro ADME; conditions: read-out: CYPs inhibition CYP2C8
T4 construct: tissue Eurofins Cerep (CRO); host or cells: human liver microsomes
Protocol: as §1

CYP2D6 = biological target: T5, CYP2D6 (Homo sapiens, UniProt P10635); test: CYP inhibition in human liver microsomes; type: in vitro ADME; conditions: read-out: CYPs inhibition CYP2D6
T5 construct: tissue Eurofins Cerep (CRO); host or cells: human liver microsomes
T5 sequence (P10635 whole entry): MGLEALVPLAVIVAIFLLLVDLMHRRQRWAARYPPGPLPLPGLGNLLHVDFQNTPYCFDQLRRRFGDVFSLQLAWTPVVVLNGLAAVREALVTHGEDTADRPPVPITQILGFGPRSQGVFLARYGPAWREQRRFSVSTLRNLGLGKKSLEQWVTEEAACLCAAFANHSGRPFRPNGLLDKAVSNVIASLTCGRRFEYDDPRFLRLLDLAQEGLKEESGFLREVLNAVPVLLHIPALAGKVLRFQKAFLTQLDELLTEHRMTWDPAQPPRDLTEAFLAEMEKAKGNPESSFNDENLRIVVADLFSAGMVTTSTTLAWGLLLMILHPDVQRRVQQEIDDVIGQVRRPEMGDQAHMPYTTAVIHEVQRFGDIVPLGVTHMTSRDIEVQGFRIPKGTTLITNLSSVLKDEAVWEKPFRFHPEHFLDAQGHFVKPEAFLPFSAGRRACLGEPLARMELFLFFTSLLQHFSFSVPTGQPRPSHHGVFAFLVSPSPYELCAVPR
Protocol: as §1

CYP3A = test: CYP inhibition in human liver microsomes; type: in vitro ADME; conditions: read-out: CYPs inhibition CYP3A
Protocol: as §1

CYP2B6 = biological target: T6, CYP2B6 (Homo sapiens, UniProt P20813); test: CYP inhibition in human liver microsomes; type: in vitro ADME; conditions: read-out: CYPs inhibition CYP2B6
T6 construct: tissue Eurofins Cerep (CRO); host or cells: human liver microsomes
Protocol: as §1

CYP1A = biological target: T7, CYP1A (Homo sapiens, UniProt P05177); test: CYP inhibition in human liver microsomes; type: in vitro ADME; conditions: read-out: CYPs inhibition CYP1A
T7 construct: tissue Eurofins Cerep (CRO); host or cells: human liver microsomes
Protocol: as §1

CYP2C19 = biological target: T8, CYP2C19 (Homo sapiens, UniProt P33261); test: CYP inhibition in human liver microsomes; type: in vitro ADME; conditions: read-out: CYPs inhibition CYP2C19
T8 construct: tissue Eurofins Cerep (CRO); host or cells: human liver microsomes
Protocol: as §1

P-gp = biological target: T9, P-gp (Homo sapiens, UniProt P08183); test: Drug transporter inhibition (ABC family); type: in vitro ADME; conditions: transporter-overexpressing cell lines, read-out: Drug transporters inhibition P-gp
T9 construct: in the Caco-2 cell line with and without verapamil; host or cells: Caco-2
Protocol: as §1

MRP3 = MRP3 (Homo sapiens, UniProt O15438); test: Drug transporter inhibition (ABC family); type: in vitro ADME; conditions: transporter-overexpressing cell lines, read-out: Drug transporters inhibition MRP3
Sequence of MRP3 (O15438 whole entry): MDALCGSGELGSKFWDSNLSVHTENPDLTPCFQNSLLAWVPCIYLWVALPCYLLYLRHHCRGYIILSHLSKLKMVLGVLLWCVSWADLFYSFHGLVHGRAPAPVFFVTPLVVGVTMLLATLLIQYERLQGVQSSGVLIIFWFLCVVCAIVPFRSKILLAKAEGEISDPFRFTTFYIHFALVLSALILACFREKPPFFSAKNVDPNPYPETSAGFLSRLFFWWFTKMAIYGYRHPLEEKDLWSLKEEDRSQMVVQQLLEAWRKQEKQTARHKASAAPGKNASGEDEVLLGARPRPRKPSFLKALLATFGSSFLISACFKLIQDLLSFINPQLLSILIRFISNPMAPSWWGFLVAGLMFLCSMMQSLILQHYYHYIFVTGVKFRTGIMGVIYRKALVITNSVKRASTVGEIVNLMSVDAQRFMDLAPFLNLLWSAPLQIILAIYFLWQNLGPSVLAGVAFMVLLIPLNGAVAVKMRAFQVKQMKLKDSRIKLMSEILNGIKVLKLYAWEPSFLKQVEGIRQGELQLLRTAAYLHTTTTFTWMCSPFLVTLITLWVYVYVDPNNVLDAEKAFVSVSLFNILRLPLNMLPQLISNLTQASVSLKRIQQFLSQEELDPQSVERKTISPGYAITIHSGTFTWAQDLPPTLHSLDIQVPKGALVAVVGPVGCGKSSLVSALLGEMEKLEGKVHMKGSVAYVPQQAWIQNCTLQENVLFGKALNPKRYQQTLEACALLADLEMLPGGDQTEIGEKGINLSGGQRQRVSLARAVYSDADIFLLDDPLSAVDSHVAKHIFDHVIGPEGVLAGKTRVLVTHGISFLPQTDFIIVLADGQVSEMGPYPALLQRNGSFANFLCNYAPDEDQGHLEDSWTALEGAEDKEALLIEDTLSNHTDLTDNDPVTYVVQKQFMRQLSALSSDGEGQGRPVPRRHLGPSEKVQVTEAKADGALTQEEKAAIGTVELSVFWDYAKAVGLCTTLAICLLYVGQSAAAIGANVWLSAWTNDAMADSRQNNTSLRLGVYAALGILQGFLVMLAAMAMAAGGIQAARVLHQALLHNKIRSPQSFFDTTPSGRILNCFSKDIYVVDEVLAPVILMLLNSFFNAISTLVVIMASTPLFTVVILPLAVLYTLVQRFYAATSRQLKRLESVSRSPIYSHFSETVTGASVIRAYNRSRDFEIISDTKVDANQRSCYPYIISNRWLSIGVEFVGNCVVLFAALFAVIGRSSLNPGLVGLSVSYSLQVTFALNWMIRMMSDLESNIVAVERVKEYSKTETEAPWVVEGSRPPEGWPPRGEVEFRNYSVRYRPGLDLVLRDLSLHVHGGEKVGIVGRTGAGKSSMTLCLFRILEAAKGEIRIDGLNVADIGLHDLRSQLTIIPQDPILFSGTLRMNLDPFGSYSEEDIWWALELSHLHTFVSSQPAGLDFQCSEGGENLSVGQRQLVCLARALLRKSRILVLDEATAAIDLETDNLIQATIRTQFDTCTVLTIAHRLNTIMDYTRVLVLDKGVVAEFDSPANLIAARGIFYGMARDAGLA
Protocol: as §1

MRP1 = MRP1 (Homo sapiens, UniProt P33527); test: Drug transporter inhibition (ABC family); type: in vitro ADME; conditions: transporter-overexpressing cell lines, read-out: Drug transporters inhibition MRP1
Sequence of MRP1 (P33527 whole entry): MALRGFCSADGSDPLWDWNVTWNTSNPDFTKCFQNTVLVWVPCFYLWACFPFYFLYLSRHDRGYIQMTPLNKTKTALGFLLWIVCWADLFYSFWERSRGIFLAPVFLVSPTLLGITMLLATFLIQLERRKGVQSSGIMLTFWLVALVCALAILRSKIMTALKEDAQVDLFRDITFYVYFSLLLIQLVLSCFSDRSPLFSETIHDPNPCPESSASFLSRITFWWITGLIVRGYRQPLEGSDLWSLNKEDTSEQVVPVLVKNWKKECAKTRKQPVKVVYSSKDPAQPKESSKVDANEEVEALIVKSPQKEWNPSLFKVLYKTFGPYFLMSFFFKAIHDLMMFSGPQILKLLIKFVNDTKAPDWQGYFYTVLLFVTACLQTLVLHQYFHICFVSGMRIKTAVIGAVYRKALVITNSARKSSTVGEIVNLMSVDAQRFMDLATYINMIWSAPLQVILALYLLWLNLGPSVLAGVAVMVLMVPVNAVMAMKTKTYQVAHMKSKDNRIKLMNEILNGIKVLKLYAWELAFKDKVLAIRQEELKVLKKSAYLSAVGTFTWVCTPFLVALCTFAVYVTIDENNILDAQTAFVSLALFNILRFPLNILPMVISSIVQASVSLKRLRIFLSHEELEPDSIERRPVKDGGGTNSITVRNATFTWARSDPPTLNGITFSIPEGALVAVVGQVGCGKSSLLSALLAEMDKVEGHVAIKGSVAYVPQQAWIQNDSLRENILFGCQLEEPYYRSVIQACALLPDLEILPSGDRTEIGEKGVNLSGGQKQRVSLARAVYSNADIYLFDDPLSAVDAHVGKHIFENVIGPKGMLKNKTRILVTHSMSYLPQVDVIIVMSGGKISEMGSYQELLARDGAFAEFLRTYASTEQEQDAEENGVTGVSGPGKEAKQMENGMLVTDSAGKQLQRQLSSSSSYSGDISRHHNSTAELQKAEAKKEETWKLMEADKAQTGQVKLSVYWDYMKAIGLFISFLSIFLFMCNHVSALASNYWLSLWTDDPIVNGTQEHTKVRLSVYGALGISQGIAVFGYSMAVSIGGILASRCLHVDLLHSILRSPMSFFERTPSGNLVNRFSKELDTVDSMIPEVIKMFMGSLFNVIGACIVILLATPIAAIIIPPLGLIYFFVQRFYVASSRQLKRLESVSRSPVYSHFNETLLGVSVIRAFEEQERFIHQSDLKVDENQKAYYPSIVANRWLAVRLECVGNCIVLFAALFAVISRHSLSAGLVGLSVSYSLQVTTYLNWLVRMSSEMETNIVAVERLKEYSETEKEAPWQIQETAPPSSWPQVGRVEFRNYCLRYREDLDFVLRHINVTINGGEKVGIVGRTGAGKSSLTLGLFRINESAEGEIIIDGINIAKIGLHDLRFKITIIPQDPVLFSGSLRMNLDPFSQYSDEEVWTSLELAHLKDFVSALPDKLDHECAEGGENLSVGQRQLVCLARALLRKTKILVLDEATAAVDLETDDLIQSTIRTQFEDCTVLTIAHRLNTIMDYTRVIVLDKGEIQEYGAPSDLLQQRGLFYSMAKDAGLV
Protocol: as §1

MRP2 = MRP2 (Homo sapiens, UniProt Q92887); test: Drug transporter inhibition (ABC family); type: in vitro ADME; conditions: transporter-overexpressing cell lines, read-out: Drug transporters inhibition MRP2
Protocol: as §1

BCRP = BCRP (Homo sapiens, UniProt Q9UNQ0); test: Drug transporter inhibition (ABC family); type: in vitro ADME; conditions: transporter-overexpressing cell lines, read-out: Drug transporters inhibition BCRP
Protocol: as §1

[3] = test system: 40 different receptors relevant to CNS disease; set-up: method as in PMID 28756263; conditions: 40 receptors relevant to CNS disease; cited from earlier work

Row | SMILES | fraction unbound at 4 h, 10 µM (Plasma protein binding) | Papp A→B at 10 µM [1] | efflux ratio at 10 µM [1] | Papp B→A at 10 µM [1] | Compound Remaining (1 h, %) [2] | half-life at 10 µM [2] | microsomal CLint at 10 µM [2] | inhibition at 10 µM (CYP2C9) | inhibition at 10 µM (CYP2C8) | inhibition at 10 µM (CYP2D6) | inhibition at 10 µM (CYP3A) | inhibition at 10 µM (CYP2B6) | inhibition at 10 µM (CYP1A) | inhibition at 10 µM (CYP2C19) | inhibition at 10 µM (P-gp) | inhibition at 10 µM (MRP3) | inhibition at 10 µM (MRP1) | inhibition at 10 µM (MRP2) | inhibition at 10 µM (BCRP) | further results
1 | O=C(NCCCNCc1ccccc1)c1ccc(Cl)cc1 [compound 7i-deMe] | 0.19 | 31.1 ×10⁻⁶ cm/s | 1.7 | 51.5 ×10⁻⁶ cm/s | 80% | > 3 h | < 115 µL/min/mg | 5.9% | -7.2% | 91.6% | 3.2% | 15.9% | 9.4% | 18.4% | 1% | -0.6% | -3.4% | -11.5% | -3% | IC50 (hERG; read-out: hERG IC50): 1.2 µM; Ki (S1R): 0.023 µM
2 | CN(CCCNC(=O)c1ccc(Cl)cc1)Cc1ccccc1 [compound 7i] | > 0.05 | ≤ 20 ×10⁻⁶ cm/s | ~2 | 66.1 ×10⁻⁶ cm/s | 54% | > 1 h | < 115 µL/min/mg | -7.2% | -9.2% | 95.1% | 36.9% | -4.3% | 2.1% | 36.5% | 10.6% | -0.3% | 1.9% | -18.8% | 8.3% | IC50 (hERG; Table 4, read-out: hERG inhibition IC50): 1 µM; off-target selectivity profile [3]: excellent highly selective profile
